Assay results as given in patent US12310364B2, “Safened compositions comprising pyridine carboxylate herbicides and cloquintocet” (Corteva Agriscience LLC, priority 2018, dated 2025).

Legend:
Format in all cases: in vivo
[1] = tested on: Anthemis arvensis (field chamomile), ANTAR; test: Greenhouse postemergence trial, visual injury on field chamomile
Source text: (§1) Greenhouse Trial Methodology—Evaluation of Postemergence Herbicidal Safening in Crops
(§2) Seeds of the desired test plant species were planted in a 90:10% v/v (volume/volume) mixture of PRO-MIX® BX (Premier Tech Horticulture, Quakertown, PA, USA) and PROFILE® GREENS GRADE™ (Profile Products LLC, Buffalo Grove, IL, USA) planting mixture, which typically has a pH of 5.2 to 6.2 and an organic matter content of at least 50 percent, in plastic pots with a surface area of 103.2 square centimeters (cm^2). When required to ensure good germination and healthy plants, a fungicide treatment and/or other chemical or physical treatment was applied. The plants were grown for 7-36 days (d) in a greenhouse with an approximate 14-hour (h) photoperiod which was maintained at about 23° C. during the day and 22° C. during the night. Nutrients and water were added on a regular basis and supplemental lighting was provided with overhead metal halide 1000-Watt lamps as necessary. The plants were employed for testing when they reached the second or third true leaf stage.
(§3) Emulsifiable concentrates of each of each pyridine carboxylate herbicide (Compound A or Compound B) were prepared at 100 grams acid equivalent per liter (g ae/L). An aliquot of each emulsifiable concentrate was placed in a 25 mL glass vial and diluted with an aqueous mixture of 1.25% (v/v) ACTIROB® B esterified rapeseed oil (Bayer Crop Science, Research Triangle Park, NC, USA) or MSO® Concentrate with LECI-TECH® methylated soybean oil (Loveland Products, Loveland, CO, USA) to obtain concentrated stock solutions at the highest application rate for each herbicide, based upon a 12 milliliter (mL) application volume at a rate of 187 liters per hectare (L/ha). The concentrated stock solutions were further diluted with an aqueous mixture of 1.25% v/v ACTIROB® B or MSO® Concentrate with LECI-TECH® to obtain stock solutions at reduced application rates for each herbicide. Spray solutions of the herbicide combinations (Compound A or Compound B plus safener) were prepared by adding weighed amounts or aliquots of the safener to the stock solutions of Compound A or Compound B to form 12-mL spray solutions in two-way combinations.
(§4) The spray solutions were applied to the plant material with an overhead Mandel track sprayer equipped with 8002E nozzles calibrated to deliver 187 L/ha over an application area of 0.503 square meters (m^2) at a spray height of 18 inches (43 centimeters (cm)) above the average plant canopy. Control plants were sprayed in the same manner with the solvent blank. All herbicide (component a) application rates are given as “g ae/ha” and all safener (component b) application rates are given as “g ai/ha.”
(§5) The treated plants and control plants were placed in a greenhouse as described above and watered by sub-irrigation to prevent wash-off of the test compounds. After 20-22 d, the condition of the test plants as compared with that of the control plants was determined visually and scored on a scale of 0 to 100 percent where 0 corresponds to no injury and 100 corresponds to complete kill.

[2] = tested on: Hordeum vulgare (spring barley), HORVS; test: Greenhouse postemergence safening trial, visual injury on spring barley
Experimental: (§6) Greenhouse Trial Methodology-Evaluation of Postemergence Herbicidal […] in Crops […] When required to ensure good germination and healthy plants, a fungicide treatment and/or other chemical or physical treatment was applied. The plants were grown for 7-36 days (d) in a greenhouse with an approximate 14-hour (h) photoperiod which was maintained at about 23° C. during the day and 22° C. during the night. Nutrients and water were added on a regular basis and supplemental lighting was provided with overhead metal halide 1000-Watt lamps as necessary. The plants were employed for testing when they reached the second or third true leaf stage. Emulsifiable concentrates of each of each pyridine carboxylate herbicide (Compound A or Compound B) were prepared at 100 grams acid equivalent per liter (g ae/L). […] The concentrated stock solutions were further diluted with an aqueous mixture of 1.25% […] or MSO® Concentrate with LECI-TECH® to obtain stock solutions at reduced application rates for each herbicide. Spray solutions of the herbicide combinations (Compound A or Compound B plus safener) were prepared by adding weighed amounts or aliquots of the safener to the stock solutions of Compound A or Compound B to form 12-mL spray solutions in two-way combinations. […] Control plants were sprayed in the same manner with the solvent blank. All herbicide (component a) application rates are given as “g ae/ha” and all safener (component b) application rates are given as “g ai/ha.” The treated plants and control plants were placed in a greenhouse as described above and watered by sub-irrigation to prevent wash-off of the test compounds.

[3] = tested on: nutsedge (CYPES, Cyperus esculentus); test: Greenhouse postemergence trial, visual injury on nutsedge; conditions: Table 18
Source text: as §1, §2, §3, §4, §5

[4] = tested on: Sinapis arvensis (wild mustard), SINAR; test: Greenhouse postemergence trial, visual injury on wild mustard
Source text: as §1, §2, §3, §4, §5

[5] = tested on: Triticum aestivum (durum wheat), TRZDU; test: Greenhouse postemergence safening trial, visual injury on durum wheat
Experimental: as §6

[6] = tested on: Avena sativa (common oat), AVESA; test: Greenhouse postemergence safening trial, visual injury on common oat
Experimental: as §6

[7] = tested on: Brassica napus (winter rape), BRSNW; test: Greenhouse postemergence trial, visual injury on winter rape
Experimental: as §6

[8] = tested on: Matricaria inodora (false chamomile), MATIN; test: Greenhouse postemergence trial, visual injury on false chamomile
Source text: as §1, §2, §3, §4, §5

[9] = tested on: Triticum aestivum (spring wheat), TRZAS; test: Greenhouse postemergence safening trial, visual injury on spring wheat
Experimental: as §6

[10] = tested on: Triticum aestivum (winter wheat), TRZAW; test: Greenhouse postemergence safening trial, visual injury on winter wheat
Experimental: as §6

[11] = tested on: Hordeum vulgare (winter barley), HORVW; test: Greenhouse postemergence safening trial, visual injury on winter barley
Experimental: as §6

[12] = tested on: pigweed (AMARE, Amaranthus retroflexus); test: Greenhouse postemergence trial, visual injury on pigweed; conditions: Table 18
Source text: as §1, §2, §3, §4, §5

[13] = tested on: common sunflower (HELAN, Helianthus annuus); test: Greenhouse postemergence trial, visual injury on common sunflower; conditions: Table 18
Source text: as §1, §2, §3, §4, §5

[14] = tested on: maize (ZEAMX); test: Greenhouse postemergence safening trial, visual injury on maize; conditions: Table 18
Source text: as §1, §2, §3, §4, §5

[15] = tested on: Salsola kali (Russian thistle), SASKR; test: Greenhouse postemergence trial, visual injury on Russian thistle
Experimental: as §6

[16] = tested on: Matricaria chamomilla (wild chamomile), MATCH; test: Greenhouse postemergence trial, visual injury on wild chamomile
Experimental: as §6

[17] = tested on: Polygonum convulvus (wild buckwheat), POLCO; test: Greenhouse postemergence trial, visual injury on wild buckwheat; conditions: herbicide alone 20 g/ha
Source text: as §1, §2, §3, §4, §5

[18] = tested on: Fagopyrum esculentum (common buckwheat), FAGES; test: Greenhouse postemergence trial, visual injury on common buckwheat; conditions: herbicide alone 20 g/ha
Source text: as §1, §2, §3, §4, §5

## O=C(O)COc1ccc(Cl)c2cccnc12 [CQC-a, cloquintocet-acid]
[1]; safener alone 5 g/ha
  % visual injury, Ob: 0%
[1]; safener alone 10 g/ha
  % visual injury, Ob: 0%
[1]; safener alone 20 g/ha
  % visual injury, Ob: 0%
[1]; safener alone 40 g/ha
  % visual injury, Ob: 0%
[2]; safener alone 5 g/ha
  % visual injury, Ob: 0%
[2]; safener alone 10 g/ha
  % visual injury, Ob: 0%
[2]; safener alone 20 g/ha
  % visual injury, Ob: 0%
[2]; safener alone 40 g/ha
  % visual injury, Ob: 0%
[2]; safener alone 80 g/ha
  % visual injury, Ob: 0%
[2]; safener alone 120 g/ha
  % visual injury, Ob: 0%
[3]; CQC-a 20 g/ha alone
  % visual injury, Ob: 0%
[3]; CQC-a 40 g/ha alone
  % visual injury, Ob: 0%
[3]; CQC-a 80 g/ha alone
  % visual injury, Ob: 0%
[3]; CQC-a 120 g/ha alone
  % visual injury, Ob: 0%
[4]; safener alone 10 g/ha
  % visual injury, Ob: 0%
[4]; safener alone 20 g/ha
  % visual injury, Ob: 0%
[4]; safener alone 40 g/ha
  % visual injury, Ob: 0%
[4]; safener alone 80 g/ha
  % visual injury, Ob: 0%
[5]; safener alone 40 g/ha
  % visual injury, Ob: 0%
[6]; safener alone 40 g/ha
  % visual injury, Ob: 0%
[7]; safener alone 5 g/ha
  % visual injury, Ob: 0%
[7]; safener alone 10 g/ha
  % visual injury, Ob: 0%
[7]; safener alone 20 g/ha
  % visual injury, Ob: 0%
[7]; safener alone 40 g/ha
  % visual injury, Ob: 0%
[8]; safener alone 10 g/ha
  % visual injury, Ob: 0%
[8]; safener alone 20 g/ha
  % visual injury, Ob: 0%
[8]; safener alone 40 g/ha
  % visual injury, Ob: 0%
[8]; safener alone 80 g/ha
  % visual injury, Ob: 0%
[9]; safener alone 5 g/ha
  % visual injury, Ob: 0%
[9]; safener alone 10 g/ha
  % visual injury, Ob: 0%
[9]; safener alone 20 g/ha
  % visual injury, Ob: 0%
[9]; safener alone 40 g/ha
  % visual injury, Ob: 0%
[9]; safener alone 80 g/ha
  % visual injury, Ob: 0%
[9]; safener alone 120 g/ha
  % visual injury, Ob: 0%
[10]; safener alone 5 g/ha
  % visual injury, Ob: 0%
[10]; safener alone 10 g/ha
  % visual injury, Ob: 0%
[10]; safener alone 20 g/ha
  % visual injury, Ob: 0%
[10]; safener alone 40 g/ha
  % visual injury Δ: 0%
  % visual injury, Ob: 0%
[10]; safener alone 80 g/ha
  % visual injury, Ob: 0%
[10]; safener alone 120 g/ha
  % visual injury, Ob: 0%
[11]; safener alone 5 g/ha
  % visual injury, Ob: 0%
[11]; safener alone 10 g/ha
  % visual injury, Ob: 0%
[11]; safener alone 20 g/ha
  % visual injury, Ob: 0%
[11]; safener alone 40 g/ha
  % visual injury, Ob: 0%
[11]; safener alone 80 g/ha
  % visual injury, Ob: 0%
[12]; CQC-a 20 g/ha alone
  % visual injury, Ob: 0%
[12]; CQC-a 40 g/ha alone
  % visual injury, Ob: 0%
[12]; CQC-a 80 g/ha alone
  % visual injury, Ob: 0%
[12]; CQC-a 120 g/ha alone
  % visual injury, Ob: 0%
[13]; CQC-a 20 g/ha alone
  % visual injury, Ob: 0%
[13]; CQC-a 40 g/ha alone
  % visual injury, Ob: 0%
[13]; CQC-a 80 g/ha alone
  % visual injury, Ob: 0%
[13]; CQC-a 120 g/ha alone
  % visual injury, Ob: 0%
[14]; CQC-a 20 g/ha alone
  % visual injury, Ob: 0%
[14]; CQC-a 40 g/ha alone
  % visual injury, Ob: 0%
[14]; CQC-a 80 g/ha alone
  % visual injury, Ob: 0%
[14]; CQC-a 120 g/ha alone
  % visual injury, Ob: 0%

## COC(=O)COc1ccc(Cl)c2cccnc12 [CQC-methyl, cloquintocet-methyl]
[15]; safener alone 10 g/ha
  % visual injury, Ob: 0%
[15]; safener alone 20 g/ha
  % visual injury, Ob: 0%
[15]; safener alone 40 g/ha
  % visual injury, Ob: 0%
[2]; safener alone 10 g/ha
  % visual injury, Ob: 0%
[2]; safener alone 20 g/ha
  % visual injury, Ob: 0%
[2]; safener alone 40 g/ha
  % visual injury, Ob: 0%
[7]; safener alone 10 g/ha
  % visual injury, Ob: 0%
[7]; safener alone 20 g/ha
  % visual injury, Ob: 0%
[7]; safener alone 40 g/ha
  % visual injury, Ob: 0%
[9]; safener alone 10 g/ha
  % visual injury, Ob: 0%
[9]; safener alone 20 g/ha
  % visual injury, Ob: 0%
[9]; safener alone 40 g/ha
  % visual injury, Ob: 0%
[16]; safener alone 10 g/ha
  % visual injury, Ob: 0%
[16]; safener alone 20 g/ha
  % visual injury, Ob: 0%
[16]; safener alone 40 g/ha
  % visual injury, Ob: 0%

## C#CCOC(=O)c1nc(-c2ccc3cc[nH]c3c2F)c(F)c(N)c1Cl [Compound B, propargyl 4-amino-3-chloro-5-fluoro-6-(7-fluoro-1H-indol-6-yl)pyridine-2-carboxylate]
[15]; herbicide alone 20 g/ha
  % visual injury, Ob: 70%
[17]
  % visual injury, Ob: 100%
[2]; herbicide alone 20 g/ha
  % visual injury, Ob: 30%
[2]; herbicide alone 40 g/ha
  % visual injury, Ob: 25%
[4]; herbicide alone 20 g/ha
  % visual injury, Ob: 80%
[5]; herbicide alone 40 g/ha
  % visual injury, Ob: 40%
[6]; herbicide alone 40 g/ha
  % visual injury, Ob: 0%
[7]; herbicide alone 20 g/ha
  % visual injury, Ob: 100%
[18]
  % visual injury, Ob: 78%
[9]; herbicide alone 20 g/ha
  % visual injury, Ob: 28%
[9]; herbicide alone 40 g/ha
  % visual injury, Ob: 48%
[10]; herbicide alone 40 g/ha
  % visual injury, Ob: 50%
[11]; herbicide alone 40 g/ha
  % visual injury Δ: 0%
  % visual injury, Ob: 38%
